According to US20220031680A1, “Donecopride As Neuroprotective Agent In the Treatment of Neurodegenerative Diseases” (priority 2018, published 2022):

Legend:
GFAP = assay: Astrogliosis (GFAP staining) in 5×FAD mouse brain; assay type: in vivo; conditions: 1 mg/kg twice a week for 3 months
Protocol: (§1) 5×FAD mice received chronic treatments with drugs or vehicle according to 2 different protocols. In each experiment, drugs or vehicle solution were administered i.p. twice a week (1 mg/kg). In “Protocol 1”, mice (n=6-7 mice per group) were treated with compounds for two months, from 2 to 4 months of age. In “Protocol 2”, mice (n=7) were treated with compounds for three months, from 1 month to 4 months of age. At the end of each protocol, mice were anesthetized with a mixture of 100 mg/kg ketamine and 10 mg/kg xylazine in saline solution and perfused transcardially with PBS. Brains were quickly isolated on ice, the olfactory bulbs and cerebellum removed and the two hemispheres divided. One hemisphere was frozen on dry ice and stored at −80° C. for biochemical analysis, while the other was post-fixed in 4% PFA for immunohistochemistry (IHC).
(§2) Thirty-micrometer-thick sections were cut using a vibratome (Microm HM 650V, Thermo Scientific, Saint Herblain, France) and stored in cryoprotectant medium at −20° C. For the labeling of amyloid plaques, free-floating tissue sections of frontal cortex, hippocampus and entorhinal cortex (coordinates from the bregma: frontal cortex=1.98 mm, hippocampus=−1.94 mm, entorhinal cortex=−3.08 mm) were extensively washed in PBS and then incubated in blocking solution (PBS; 3% BSA; 0.1% Triton X-100) for 1 h. Sections were stained with Hoechst dye (1:1000, Life Technologies, Saint Aubin, France) for 15 minutes to detect cell nuclei and then with freshly prepared thioflavin T solution (#T3516-5G, Sigma-Aldrich) (final concentration: 0.01 mg/ml in blocking buffer) for 15 minutes. After washing in 70% ethanol for 5 minutes, samples were mounted on poly-lysine slides with coverslips. For GFAP (glial fibrillary acidic protein) staining, free-floating brain sections were blocked as before and incubated with polyclonal rabbit anti-GFAP (1:1000, Z0334, Dako, Les Ullis, France) at 4° C. overnight. After thioflavin T staining and washing with 70% ethanol, the secondary Alexafluor 594 goat anti-rabbit antibody (1:1000, A11012, Life Technologies) was added for 2 h. PBS washes and mounting were performed as described before.
(§3) Images were acquired with an Axiolmager Z1 microscope (Carl Zeiss S.A.S., Marly le Roi, France). Analysis of thioflavin T staining was performed blindly and data are presented as the mean number of particles per mm^2 in two to three tissue sections from the same brain area/animal (Image J software). GFAP expression was quantified using Image J software and results are expressed as area fractions.
(§4) 28 female 5×FAD mice (C57BL/6J genetic background) were used in this study. Mice received vehicle or compounds (1 mg/kg) i.p., twice a week for three months, from 1 to 4 months of age.

5×FAD mice = assay: Novel object recognition test in 5×FAD mice; assay type: in vivo, mouse; conditions: 1 mg/kg twice a week for 3 months; 24 h inter-session interval
Protocol: Animal experiments were carried out in accordance with the Directive by the Council of the European Communities of Nov. 24, 1986 (86/609/EEC). All efforts were made to minimize animal suffering and to reduce the number of mice used. The generation of 5×FAD mice was described in Oakley et al. (2006) J. Neurosci. 26:10129-10140. These transgenic mice overexpress both human APP (695) harboring the Swedish (K670N, M671L), Florida (1716V) and London (V7171) familial AD (FAD) mutations and human Presenilin 1 (PS1) harboring the two FAD mutations M146L and L286V. Expression of both transgenes is regulated by neuronal-specific elements of the mouse Thy1 promoter. The 5×FAD strain (B6/SJL genetic background) was maintained by crossing hemizygous transgenic mice with B6/SJL F1 breeders. The 5×FAD strain (C57BL/6J genetic background) was maintained by crossing hemizygous transgenic mice with C57BL/6J F1 breeders. All animals were genotyped by PCR using tail genomic DNA. Transgenic and WT mice were bred in our animal facility, had access to food and water ad libitum and were housed under a 12 h light-dark cycle at 22-24° C. Female 5×FAD mice were used in this study. For each experiment, the age of mice is indicated in months (with a two-week range).
Compounds were resuspended in DMSO (37.5 μg/μl, stored at −20° C.) and freshly diluted 1:250 in 0.9% NaCl prior administration. Vehicle solution (0.9% NaCl, 0.4% DMSO) was used as control.
5×FAD mice received chronic treatments with drugs or vehicle according to 2 different protocols. In each experiment, drugs or vehicle solution were administered i.p. twice a week (1 mg/kg). […]
The cognitive performance of mice was tested using the novel object recognition (NOR) test (Bevins and Besheer (2006) Nat. Protoc. 1:1306-1311). […] The whole experiment was video-recorded and object exploration [time spent by the mouse nose in contact with the object or by sniffing it at a distance s 1 cm] was blindly measured. […] A discrimination index was also calculated ([novel−familiar]/[familiar+novel]). […]

amyloid plaques = assay: Number of amyloid plaques (thioflavin T) in 5×FAD mouse brain; assay type: in vivo; conditions: 1 mg/kg twice a week for 3 months
Protocol: as §1, §2, §3, §4
Anti-amyloid effect. Frontal cortex, hippocampus and entorhinal cortex were analyzed as representative areas of 5×FAD mouse brain (frontal, median and caudal sections) and of human brain regions that are affected early by Alzheimer's disease and are highly enriched in amyloid deposits.

Aβ42 = Aβ42 concentration in cerebrospinal fluid of 5×FAD mice; assay type: in vivo, mouse; conditions: 1 mg/kg twice a week for 3 months; compared to controls
Protocol: as §1
Mice were anesthetized and mounted onto a stereotaxic instrument. The neck skin was cut and subcutaneous tissue and muscles separated with the help of micro-retractors (Fine Science Tools, Heidelberg, Germany). Mice were then laid down so that the head formed an angle of about 135° with the body (Liu and Duff (2008) J. Vis. Exp. 10:960). A capillary tube (Borosilicate glass, B100-75-10, Sutter Instruments, Novato, Calif., USA) was used to punch the dura mater of the cisterna magna. CSF was collected by capillary action and transferred to 0.5 mL microtubes, immediately frozen on dry ice and stored at −80° C. until use. Once thawed, samples were heated at 60° C. for 5 min as described in the international application WO 2008/009868 and analyzed without further freezing-thawing cycles.
ELISA kits from IBL International (Hamburg, Germany) for the dosage of Aβ40 (human amyloid β (1-40) assay kit, #27713) or Aβ42 (human amyloid β (1-42) assay kit, #27719) were used according to the manufacturer's instructions. Reactions were read at 620 nm and 450 nm using an Infinite 2000 luminescence counter. The obtained values were normalized to the protein concentration of each sample, measured using a BCA protein assay (Sigma-Aldrich). […]

Structure (SMILES): CCCCN1CCC(CCC(=O)c2cc(Cl)c(N)cc2OC)CC1 [RS 67333, 1-(4-amino-5-chloro-2-methoxy-phenyl)-3-(1-butyl-4-piperidinyl)-1-propanone, reference compound]
- GFAP staining in frontal cortex or hippocampus (GFAP; compared to controls): not significantly different
- decrease of GFAP staining in entorhinal brain slices (GFAP; compared to vehicle): 62±6%
- recognition memory, exploration of novel vs familiar object (NOR) (5×FAD mice): reverses cognitive impairment
- Amyloid plaque number in hippocampus (amyloid plaques; compared to controls): not significantly different
- reduction of the number of amyloid plaques in entorhinal cortex (amyloid plaques; compared to vehicle): No significant effect
- reduction of the number of amyloid plaques in frontal cortex (amyloid plaques; compared to vehicle): No significant effect
- Aβ42 concentration in cerebrospinal fluid (CSF) (Aβ42): not significantly different
